Read-outs that look alike come from different tables or passages of the source.

Experiment [1] has as its system protein synthesis of Ehrlich ascites cells. Put plainly: In vivo leucine incorporation into protein. Set-up: species or system mouse. The procedure: CF1 male mice (~30 g) were implanted with 2×10^6 Ehrlich ascites tumor cells, intraperitoneally on Day 0. Compound I was suspended by homogenation in 0.05% polysorbate.80-water and administered intraperitoneally at 10 and 20 mg/kg for 9 days to determine its effectiveness for inhibition of tumor growth. Mice were sacrificed on Day 10, and the ascites fluid was collected from the peritoneal cavity. The volume and ascrit (packed cell volume) were determined for each animal and the percent inhibition of tumor growth was calculated. For the metabolic studies, mice were treated on Days 8 and 9 with 10 mg/kg of Compound I, intraperitoneally. The animal was sacrificed on Day 10 and the ascites fluid harvested. […]
For in vivo studies, incorporation of thymidine into deoxyribonucleic acid was determined by the method of Chae et al [Proc. Am. […] The deoxyribonucleic acid was isolated and the tritium content was determined in a toluene based scintillation fluid. The deoxyribonucleic acid concentration was determined by the diphenylamine reaction using calf thymus deoxyribonucleic acid as a standard. Uridine incorporation into ribonucleic acid was determined using 10 μCi of 5,6-^3 H-uridine (22.4 Ci/mmol). […] Leucine incorporation into protein was determined by the method of Sartorelli [Biochem. Biophys. […] Protein content was determined by the Lowry procedure using bovine serum albumin as a standard.

Experiment [2] addresses T1, messenger ribonucleic acid polymerase (Mus musculus, UniProt P08775+Q8CFI7).
T1 construct: enzymes isolated from nuclei; endogenous in cells; host or cells: Ehrlich ascites tumor cell nuclei, ammonium sulfate fraction
The experiment is described as follows: In vivo messenger ribonucleic acid polymerase activity. The procedure:
CF1 male mice (~30 g) were implanted with 2×10^6 Ehrlich ascites tumor cells, intraperitoneally on Day 0. Compound I was suspended by homogenation in 0.05% polysorbate.80-water and administered intraperitoneally at 10 and 20 mg/kg for 9 days to determine its effectiveness for inhibition of tumor growth. Mice were sacrificed on Day 10, and the ascites fluid was collected from the peritoneal cavity. The volume and ascrit (packed cell volume) were determined for each animal and the percent inhibition of tumor growth was calculated. For the metabolic studies, mice were treated on Days 8 and 9 with 10 mg/kg of Compound I, intraperitoneally. The animal was sacrificed on Day 10 and the ascites fluid harvested. The in vitro metabolic studies were performed at […] final concentration of Compound I.
In vitro and in vivo nuclear deoxyribonucleic acid polymerase activity was determined on isolated Ehrlich ascites cell nuclei. The incubation was that described by Sawada et al [Can. Res., 34, 3341 (1974)] except that [methyl-^3 H] deoxythymidine triphosphate (82.4 Ci/mmol) was used. The acid insoluble nucleic acid was collected on GF/F filters and counted. Nuclear ribonucleic acid polymerase activities were determined on enzymes isolated from nuclei. […] The acid insoluble ribonucleic acid was collected on nitrocellulose filters and counted.

The test system of experiment [3] is Holtzman male rats. The experiment is described as follows: Cholesterol absorption study. It is filed as in vivo, rat. Conditions: rats treated 14 days, over a 24-hr period. The procedure: Holtzman male rats (~400 g) were administered the test drug orally for 14 days at 10 mg/kg/day. On day 13, 10 μCi of 1,2-^3 H(N)-cholesterol (40.7 Ci/mmol) was administered to the rat orally. Twenty-four hours later, the blood was collected and the serum separated by centrifugation. Both the serum and the precipitate were counted.

Experiment [4] has as its system Phosphatidate Phosphohydrolase. Put plainly: In vivo liver enzyme study: phosphatidate phosphohydrolase. Also noted: species or system mouse. Conditions: for Phosphatidate Phosphohydrolase: CF1 liver after 16 days i.p. The procedure: In vitro enzymatic studies were determined using 10% homogenates of CF1 male mouse liver with 50-200 μM of test drugs. In vivo enzymatic studies were determined using 10% homogenates of liver from CF1 male mice obtained after administering the agents for 16 days at a dose ranging from 2.5-20 mg/kg/day intraperitoneally. The liver homogenates for both in vitro and in vivo studies were prepared in 0.25M sucrose and 0.001M (ethylenedinitrilo)tetraacetic acid. Acetyl coenzyme A synthetase and adenosine triphosphate dependent citrate lyase activities were determined spectrophotometrically at 540 nm as the hydroxylamate of acetyl coenzyme A formed after 30 min at 37° C. Mitochondrial citrate exchange was determined by the procedure of Robinson et al [Eur. J. Biochem., 216, 63 (1970)] using ^14 C-sodium bicarbonate (41 mCi/mmol) incorporated into mitochondrial ^14 C-citrate after isolating rat mitochondria (9000 g×10 min) from the homogenates. The exchanges of the ^14 C-citrate were determined after incubating the mitochondrial fraction which was loaded with labeled citrate and test drugs for 10 min. Then the radioactivity was measured in the mitochondrial and supernantant fractions in scintillation fluid and expressed as a percentage. Cholesterol side chain oxidation was determined by the method of Kritchevsky and Tepper [Artherosclerosis, 18, 93 (1973)] using (26-^14 C) cholesterol (50 mCi/mmol) and mitochondria isolated from rat liver homogenates. After 18 hr incubation at 37° C. with test drugs, the generated ^14 CO2 was trapped in the center well in {2-(2-(p-1,1,3,3,-tetramethylbutylcresoxy)ethoxy]ethyl } dimethylbenzylammonium hydroxide and counted. 3-Hydroxy-3-methylglutaryl coenzyme A reductase (HMG coenzyme A reductase) activity was measured using 1-^14 C-acetate (56 mCi/mmol) and a post-mitochondrial supernatant (9000 g×20 min) incubated for 60 min at 37° C. [Wada et al, J. Biochem. (Tokyo), 65 71 (1969)]. The digitonide derivative of cholesterol was isolated and counted. Acetyl coenzyme A carboxylase activity was measured by the method of Greenspan and Lowenstein [J. Biol. Chem., 243, 6273 (1968)]. […] Fatty acid synthetase activity was determined by the method of Brady et al [J. Biol. Chem., 235, 3093 (1960)] using [2-^14 C] malonyl-coenzyme A (37.5 mCi/mmol) which was incorporated into newly synthesized fatty acids that were extracted with ether and counted. Acyl transferase activity was determined with glycerol-3phosphate [L-2-^3 H(N)] […] HCl and counted. Phosphatidate phosphohydrolase activity was measured as the inorganic phosphate released after 30 min from phosphatidic acid by the method of Mavis et al [J. Lipid Res., 19, 467 (1978)]. The released inorganic phosphate after development with ascorbic acid and ammonium molybdate was determined at 820 nm. […]

The mark [5] stands for this setting: 10 mg/kg/day I.P. on Days 8 and 9.

Turning to “{Cu[(CH3)3 N.BH2 CO2 ]2.(CH3)3 N.BH2 COOH} [Compound I]”, in experiment [1] (setting [5]), the “3H-Leucine incorporation into protein” value is 48 ± 6 % Control. For the same substance, the “Leucine incorporation into protein inhibited” value in experiment [1] (10 day Ehrlich ascites cells) is listed as 52%. Further, the “Messenger ribonucleic acid polymerase activity” value was “not affected” in experiment [2] and 96 ± 9 % Control in experiment [2] (setting [5]). Besides, the “adsorption of orally administered 3H-cholesterol reduced” value in experiment [3] turned out to be 85%. Further, the “Phosphatidate Phosphohydrolase” value in experiment [4] (2.5 mg/kg) is recorded as 55 ± 5% of control; in experiment [4] (5.0 mg/kg), 53 ± 5% of control; in experiment [4] (10 mg/kg) it was 18% of control. In addition, the “Phosphatidate Phosphohydrolase activity reduction” value in experiment [4] (in vivo, mice 16 days, 10 mg/kg/day) is given as 82%.

For the origin of these results see patent US4550186A, “Binuclear copper (II) carboxylates formed from amine-carboxyboranes” (Duke University, priority 1983, dated 1985).
